Reference: publication PMC9652372, “Glycolytic flux control by drugging phosphoglycolate phosphatase” (Nature Communications, 2022)
Several values for one entry are separate records, joined by “and”; a condition that tells them apart may be missing. Equal values may be shown once.

Legend:
[1] = system: HT1080 cells; assay: Cell proliferation assay (EdU incorporation); assay type: cell-based, human
Procedure: Parental HT1080 cells or the indicated CRISPR/Cas9-engineered control (PGP-WT) or PGP-KO cells were grown in complete DMEM. For the expression of PGP-WT or PGP-P127E, cells were transfected with either the pcDNA3 empty vector control or the indicated constructs in pcDNA3 using X-tremeGENE (Roche/Merck), according to the manufacturer’s instructions. […] To assess DNA synthesis, cells were labeled for 2.5 h with 10 μM 5-ethynyl-2'-deoxyuridine (EdU), fixed and permeabilized according to the manufacturer’s recommendations (Click-iT EdU Alexa Fluor 488 imaging kit, Invitrogen/Thermo Fisher). Cells were counterstained with 4′,6-diamidine-2-phenylindole (DAPI), embedded with Fluoromount-G (Thermo Fisher), and imaged on a Nikon TE Eclipse epifluorescence microscope equipped with a 4 × objective and NIS elements software AR 5.02.00. EdU and/or DAPI-positive cells were analyzed using the ImagePro-Plus software version 7.0 (Media Cybernetics). Statistical significance was assessed using GraphPad Prism 9.4.1 software.

[2] = system: HT1080 cells; assay: NMR quantification of cellular metabolites; assay type: cell-based, human
Procedure: For NMR experiments, 2.7 million cells were seeded in 10 cm dishes for all samples. […] For each condition, six samples were prepared; one of which was used to count the number of cells at the end of the sample preparation. Free metabolites were obtained by methanol extraction: After washing the samples with ice-cold PBS, they were placed in liquid nitrogen for 2 min, followed by mixing the samples cooled on ice with 5 mL methanol. The samples were mixed for 15 min at 4 °C, and centrifuged at 2.5 × g for 30 min at 4 °C. The solvent was removed by evaporation with a N2 gas flow over 5 h on ice, followed by freeze-drying under vacuum. The remaining pellet was dissolved in 700 µL D2O, and transferred to a 5 mm borosilicate NMR tube. NMR experiments were performed with a BRUKER AVANCE NEO 600 spectrometer operating at 600.13 MHz for ^1H detection equipped with a cryogenic NMR probe offering enhanced sensitivity. The ^1H NMR spectra were acquired using a double watergate pulse sequence with excitation sculpting for water suppression. A relaxation delay of 4 s was sufficient. The π and π/2 pulses performed with a radio frequency power of 62.5 kHz were combined with 2 ms selective rectangular shape pulses optimized for efficient suppression of the H2O ^1H resonance, which was chosen as the transmitter frequency. The two blocks of gradient pulses were conducted over 1 ms per pulse using gradients of 0.155 T/m and 0.055 T/m with a smoothed rectangular shape profile (SMSQ10.100). Signal averaging was achieved over 512 scans using an acquisition time of 1.38 s. Acquisition and pre-processing of NMR spectra was performed under the control of a workstation with TopSpin 4.0.7. Data processing included Fourier transformation, zero order phase correction, 1 Hz line broadening using a Lorentzian window function and automatic baseline correction with a polynomial of fifth degree. A 9 mmol/L aqueous sucrose solution was used as a calibration compound to calibrate an ERETIC2 reference for absolute concentration determination[66],[67]. Based on the sucrose reference, an electronic signal was placed in each ^1H spectrum to calibrate the deconvolution software Chenomx NMR suite. A standard protocol for quantitative NMR was applied: The signal corresponding to the calibration compound was integrated and normalized according to the number of protons of this compound. The unknown concentration of compound x in the presence of the calibration compound was calculated according to: Cx=Ix/IcalNcal/NxCcal
With I, N, and C being the integral area, number of nuclei, or concentration of the calibration (cal) or the targeted compound (x), respectively. Due to spectral superposition, glycerol-3-phosphate could not be quantified in ^1H NMR spectra. Therefore, we conducted ^31P - ^1H HMBC 2D experiments and quantified glycerol-3-phosphate using the phosphorylcholine peak and the respective concentration known from ^1H NMR spectra. […] Three gradient pulses were used (sequence hmbcgpndqf) over 1 ms each with gradient strengths of 0.06 T/m, 0.06 T/m and 0.05 T/m. The relaxation delay was set to 2 s, the acquisition time to 0.328 s. […] Data processing was achieved as described above except for the Qsine window function in both dimensions. All measurements were performed at 7 °C.

SMILES: O=C(Nc1ccccc1C(=O)O)c1ccc(Oc2ccc(C(=O)Nc3ccccc3C(=O)O)cc2)cc1 [CP1]
- Edu-positive/DAPI-positive cells ([1]; KO C2 CP1 (S)): 47.70% and 42.53% and 47.97%
- Edu-positive/DAPI-positive cells ([1]; WT D5 CP1 (S)): 47.76% and 46.38% and 44.69%
- Edu-positive/DAPI-positive cells ([1]; WT D5 EV CP1 (L)): 8.23% and 14.09% and 6.30%
- change of acetate levels ([2]; HT1080 cells, 3 h, 33 µM CP1): −42%
- change of alanine levels ([2]; HT1080 cells, 3 h, 33 µM CP1): −52%
- change of lactate levels ([2]; HT1080 cells, 3 h, 33 µM CP1): −45%
- change of pyruvate levels ([2]; HT1080 cells, 3 h, 33 µM CP1): −10%
- 1-Methylnicotinamide (NMR metabolite level) ([2]; T3: 3h CP1-treated, Exp #1-5): 0.0004582 and 0.0004235 and 0.0007003 and 0.0006519 and 0.0004828
- 2-Hydroxyglutarate (NMR metabolite level) ([2]; T3: 3h CP1-treated, Exp #1-5): 0.01261 and 0.01491 and 0.01314 and 0.01427 and 0.01273
- ATP (NMR metabolite level) ([2]; T3: 3h CP1-treated, Exp #1-5): 0.001497 and 0.001391 and 0.001868 and 0.001572 and 0.001599
- Acetic acid (NMR metabolite level) ([2]; T3: 3h CP1-treated, Exp #1-5): 0.004551 and 0.004658 and 0.004836 and 0.004678 and 0.004285
- Choline (NMR metabolite level) ([2]; T3: 3h CP1-treated, Exp #1-5): 0.0005498 and 0.0005142 and 0.0005336 and 0.0006902 and 0.0006337
- Creatine (NMR metabolite level) ([2]; T3: 3h CP1-treated, Exp #1-5): 0.00675 and 0.006504 and 0.00667 and 0.008321 and 0.006277
- D-Glucose (NMR metabolite level) ([2]; T3: 3h CP1-treated, Exp #1-5): 0.1212 and 0.1286 and 0.1124 and 0.1017 and 0.1229
- Dimethylamine (NMR metabolite level) ([2]; T3: 3h CP1-treated, Exp #1-5): 0.03604 and 0.03364 and 0.02538 and 0.0283 and 0.03615
- Formic acid (NMR metabolite level) ([2]; T3: 3h CP1-treated, Exp #1-5): 0.001497 and 0.001482 and 0.001868 and 0.001994 and 0.001569
- Fumaric acid (NMR metabolite level) ([2]; T3: 3h CP1-treated, Exp #1-5): 0.0003054 and 0.0002722 and 0.0003001 and 0.0003451 and 0.0003319
- Glutathione (NMR metabolite level) ([2]; T3: 3h CP1-treated, Exp #1-5): 0.01109 and 0.01041 and 0.01101 and 0.01265 and 0.01144
- Glycerol 3-phosphate (NMR metabolite level) ([2]; T3: 3h CP1-treated, Exp #1-5): 0.005205 and 0.004086 and 0.005958 and 0.005982 and 0.004016
- Glycine (NMR metabolite level) ([2]; T3: 3h CP1-treated, Exp #1-5): 0.01387 and 0.01388 and 0.01587 and 0.01515 and 0.01301
- Histidine (NMR metabolite level) ([2]; T3: 3h CP1-treated, Exp #1-5): 0.001863 and 0.001573 and 0.001667 and 0.001611 and 0.00166
- L-Alanine (NMR metabolite level) ([2]; T3: 3h CP1-treated, Exp #1-5): 0.003726 and 0.003932 and 0.003735 and 0.003681 and 0.003651
- L-Arginine (NMR metabolite level) ([2]; T3: 3h CP1-treated, Exp #1-5): 0.003085 and 0.0036 and 0.003035 and 0.003183 and 0.004798
- L-Aspartic acid (NMR metabolite level) ([2]; T3: 3h CP1-treated, Exp #1-5): 0.006078 and 0.006201 and 0.007304 and 0.006941 and 0.006337
- L-Glutamic acid (NMR metabolite level) ([2]; T3: 3h CP1-treated, Exp #1-5): 0.03955 and 0.04114 and 0.04112 and 0.04632 and 0.04125
- L-Glutamine (NMR metabolite level) ([2]; T3: 3h CP1-treated, Exp #1-5): 0.1032 and 0.09634 and 0.112 and 0.1011 and 0.1019
- L-Isoleucine (NMR metabolite level) ([2]; T3: 3h CP1-treated, Exp #1-5): 0.008064 and 0.008046 and 0.007837 and 0.007708 and 0.008178
- L-Lactic acid (NMR metabolite level) ([2]; T3: 3h CP1-treated, Exp #1-5): 0.03287 and 0.03079 and 0.03432 and 0.03474 and 0.0328
- L-Leucine (NMR metabolite level) ([2]; T3: 3h CP1-treated, Exp #1-5): 0.008094 and 0.008077 and 0.008637 and 0.008321 and 0.007846
- L-Lysine (NMR metabolite level) ([2]; T3: 3h CP1-treated, Exp #1-5): 0.005651 and 0.005687 and 0.005569 and 0.005062 and 0.005432
- L-Methionine (NMR metabolite level) ([2]; T3: 3h CP1-treated, Exp #1-5): 0.002474 and 0.002571 and 0.002635 and 0.002454 and 0.002656
- L-Phenylalanine (NMR metabolite level) ([2]; T3: 3h CP1-treated, Exp #1-5): 0.004704 and 0.004749 and 0.004702 and 0.00464 and 0.004708
- L-Threonine (NMR metabolite level) ([2]; T3: 3h CP1-treated, Exp #1-5): 0.0135 and 0.01422 and 0.01357 and 0.01411 and 0.01304
- L-Tyrosine (NMR metabolite level) ([2]; T3: 3h CP1-treated, Exp #1-5): 0.004795 and 0.004537 and 0.004569 and 0.004755 and 0.004798
- L-Valine (NMR metabolite level) ([2]; T3: 3h CP1-treated, Exp #1-5): 0.007911 and 0.008379 and 0.00757 and 0.007631 and 0.008117
- NAD+ (NMR metabolite level) ([2]; T3: 3h CP1-treated, Exp #1-5): 0.001405 and 0.001331 and 0.001634 and 0.001764 and 0.001509
- Phosphocreatine (NMR metabolite level) ([2]; T3: 3h CP1-treated, Exp #1-5): 0.002352 and 0.00245 and 0.002668 and 0.002838 and 0.002474
- Phosphorylcholine (NMR metabolite level) ([2]; T3: 3h CP1-treated, Exp #1-5): 0.007361 and 0.007078 and 0.008004 and 0.008743 and 0.00688
- Pyroglutamate (NMR metabolite level) ([2]; T3: 3h CP1-treated, Exp #1-5): 0.007789 and 0.006927 and 0.008071 and 0.008015 and 0.007303
- Pyruvate (NMR metabolite level) ([2]; T3: 3h CP1-treated, Exp #1-5): 0.004887 and 0.004931 and 0.004602 and 0.004755 and 0.004949
- Serine (NMR metabolite level) ([2]; T3: 3h CP1-treated, Exp #1-5): 0.006414 and 0.007411 and 0.00707 and 0.007401 and 0.006729
- Succinic acid (NMR metabolite level) ([2]; T3: 3h CP1-treated, Exp #1-5): 0.001344 and 0.001543 and 0.001501 and 0.001841 and 0.001207
- Taurine (NMR metabolite level) ([2]; T3: 3h CP1-treated, Exp #1-5): 0.006506 and 0.007653 and 0.005636 and 0.009663 and 0.004858
